Test results as given in patent US20130143869A1, “USE OF A CATIONIC AMPHIPHILIC DRUG FOR THE PREPARATION OF A FORMULATION FOR THE REDUCTION OF SUBCUTANEOUS ADIPOSE TISSUE” (Merz Pharma GmbH & CO. KGaA, priority 2010, published 2013).
Structures can show the parent of a compound that is named as a salt.

Legend:
Type in all cases: cell-based
[1] = tested on: human adipocyte cells; assay: Cytotoxicity assay: metabolic activity (resazurin conversion) of human adipocytes
Method: (§1) HWP were obtained in passage two and differentiated in vitro to mature adipocytes. Briefly, cells were initially cultured in preadipocyte growth medium at 37° C. and 5% CO2 to 70-80% confluency. Then, cells were seeded at 40,000 cells/ml into 96-well flat bottom tissue culture plates and incubated overnight to allow attachment. Differentiation was initiated by changing the medium to preadipopcyte differentiation medium for an additional 72 hrs. After differentiation was induced, the medium was replaced by adipocyte nutrition medium that was refreshed every 2-3 days over a period of 14 days until termination of differentiation. Differentiation status was checked via nile red staining of control cells.
The test items 1 to 8 were prepared according to Table 1 to yield respective stock solutions. Said stock solutions were further diluted in assay media to obtain the double concentrated working solutions, which were subsequently diluted 1:2 in the final assay. […] Deoxycholate Na was selected as “reference compound”.
(§2) For the cytotoxicity assays in this study pre-adipocytes were seeded at 40,000 cells/ml into a 96-well microtiter flat bottom plate. The test items were prepared in separate plates starting with the double concentrated maximal test concentration followed by a 1:2 serial dilution (Chloroquine and Fluoxetine 1:3) and then added to the cells. The test items were tested at 6 replicates/concentration. Each plate included negative controls (media plus solvent, 6 replicates), a drug interference control (all concentrations, duplicates), a background control (14 replicates), a positive (=cytotoxic) control (6 replicates doxorubicin, 1 μM final) and a positive control for maximal LDH-release (2 replicates, 2% Triton-x 100 final).
(§3) Relative cell viability was determined after 48 hrs exposure based on metabolic activity (i.e. resazurin conversion). Using a Victor^3 1420 Multilabel Counter, the resazurin conversion to the fluorescent resorufin by metabolically active cells was recorded at 560Ex/590Em. Membrane integrity was measured after 6 hrs and 48 hrs and the enzymatic activity of released LDH in the cell supernatant after 30 min of incubation at 492 nmabsorption/690 nmreference by a spectrophotometer. The volume withdrawn from the cultures for the LDH-assay was not replaced to keep cells in a less disturbed environment. The assay was conducted in a multiplexed format.
In order to derive meaningful IC50 values from the primary data, the entire biological window of activity ranging from 0% to 100% viability should be covered and the resolution has to be sufficient. To improve data quality, the serial dilution factor used in previous experiments was reduced to a 1:2 and 1:3 dilution. […] IC50 (half maximal inhibitory concentration, calculated via Sigma Plot 10) values were determined for each test substance 1 to 8.
(§4) The effects on cytotoxicity in human adipocyte cells of a further 9 compounds were tested. The experimental set-up was identical to the one in example 1.

[2] = tested on: human adipocyte cells; assay: Membrane integrity: LDH release from human adipocytes (LDH assay); conditions: for Rel. max. LDH release [%] 48 hrs: Example 1, 48 hrs, relative to Triton-x 100 maximal LDH release; for IC50: Homo sapiens, Adipocyte, read-out: IC50 48 hrs LDH
Method: as §1, §2, §3
For the dose-response relationship, absolute absorption (OD treated wells−background) was plotted against the test item concentrations representing LDH leakage from the cells. For a better estimation of the test items' potential influencing the membrane integrity, relative, maximal LDH release in percent (see Table 2) was also calculated according to the following formula: […]
as §4

[3] = tested on: Human white adipocytes; assay: Apoptosis/necrosis detection, Annexin V-FITC/PI flow cytometry; conditions: for apoptosis/necrosis induction in human adipocytes (in words): 5, 24, 48 hrs, concentrations as in Table 4
Text: The apoptotic program is characterized by certain morphologic features. Loss of plasma membrane asymmetry is a well established indicator for apoptotic cells. In apoptotic cells, the membrane phospholipid phosphatidylserine (PS) is translocated from the inner to the outer leaflet of the plasma membrane, thereby exposing PS to the external environment. In general, this PS translocation is preceded by caspase activation. Annexin V labelled with FITC is a Ca^2+ dependent phospholipid-binding protein with high affinity for PS and binds to cells with externalized PS. Cells stained with Annexin V*FITC are therefore considered in an early apoptotic stage.
Staining with Annexin V-FITC is typically used in conjunction with a vital dye such as propidium iodide (PI) to allow discrimination between early apoptotic and necrotic cells. Necrotic dying cells are PI positive only. Cells that are viable are Annexin V and PI negative; cells that entered apoptosis are Annexin V positive and PI negative and cells that are in post apoptotic and/or necrotic phase are both Annexin V and PI positive.
Human white adipocytes that had been differentiated in vitro from pre-adipocytes as describe above were used. Measurements were performed after 5 hrs to catch early apoptotic/necrotic events and after 24 hrs and 48 hrs for later stages. Naringenin at 500 μM (reported to induce apoptosis in adipocytes) was used as positive control and media plus solvent was used as negative control. Each compound was tested in three different concentrations. […] Two more concentrations, one below and one above the IC50 were added.
Flow cytometry was performed with a dual laser FC500. After completion of the staining procedure, tubes were grouped into a FC500 carousel for semi-automated data acquisition. Cells were first acquired in “Setup” mode to tune the parameters FS, SS, FL1 and FL2. After completion of the setup, baseline compensation was switched on and cells were acquired. Cells were acquired without life-gate but using FS threshold to exclude debris. All cells were acquired using individually corrected settings.
After completion of data acquisition, analysis was done using the CXP software. If necessary, software-based post acquisition compensation was performed to fine-correct for fluorescence overlap not adjusted for during the acquisition phase. Quadrant markers were set based on the negative controls.

[4] = Homo sapiens, Adipocyte, read-out: IC50 (metabolic activity after 48 hrs), Example 1, 48 hrs exposure, resazurin
[5] = Homo sapiens, Adipocyte, read-out: IC50 48 hrs Resazurin, Example 2, 48 hrs

In the case of `CN(C)CCCC1(c2ccc(F)cc2)OCc2cc(C#N)ccc21` (centres unmarked) [Test substance 2, Citalopram HBr], the IC50 [1, 4] is reported as 431 µM, the “Rel. max. LDH release [%] 48 hrs” value [2] is reported as 100.7% and the “Early Apoptosis [A-V*/PI*]” value ([3]; 250 μM, 5 hrs) is reported as 21.5. For the same compound, the “Necrosis/ Late Apoptosis [A-V*/PI*]” value ([3]; 250 μM, 5 hrs) was 0.6, the “Normal [A-V*/PI]” value ([3]; 250 μM, 5 hrs) was 77.9 and the “Early Apoptosis [A-V*/PI*]” value ([3]; 250 μM, 24 hrs) was 32.4. The “Necrosis/ Late Apoptosis [A-V*/PI*]” value ([3]; 250 μM, 24 hrs) was 2.2, the “Normal [A-V*/PI]” value ([3]; 250 μM, 24 hrs) was 65.4 and the “Early Apoptosis [A-V*/PI*]” value ([3]; 250 μM, 48 hrs) was 23.1. The “Necrosis/ Late Apoptosis [A-V*/PI*]” value ([3]; 250 μM, 48 hrs) was 3.3, the “Normal [A-V*/PI]” value ([3]; 250 μM, 48 hrs) was 79.6 and the “Early Apoptosis [A-V*/PI*]” value ([3]; 350 μM, 5 hrs) was 31.3. For the same compound, the “Necrosis/ Late Apoptosis [A-V*/PI*]” value ([3]; 350 μM, 5 hrs) was 1.5, the “Normal [A-V*/PI]” value ([3]; 350 μM, 5 hrs) was 67.2 and the “Early Apoptosis [A-V*/PI*]” value ([3]; 350 μM, 24 hrs) was 57.6. For the same compound, the “Necrosis/ Late Apoptosis [A-V*/PI*]” value ([3]; 350 μM, 24 hrs) was 4.7, the “Normal [A-V*/PI]” value ([3]; 350 μM, 24 hrs) was 37.7 and the “Early Apoptosis [A-V*/PI*]” value ([3]; 350 μM, 48 hrs) was 35.6. The “Necrosis/ Late Apoptosis [A-V*/PI*]” value ([3]; 350 μM, 48 hrs) was 10.7, the “Normal [A-V*/PI]” value ([3]; 350 μM, 48 hrs) was 53.7 and the “Early Apoptosis [A-V*/PI*]” value ([3]; 450 μM, 5 hrs) was 30.5. For the same compound, the “Necrosis/ Late Apoptosis [A-V*/PI*]” value ([3]; 450 μM, 5 hrs) was 1.1, the “Normal [A-V*/PI]” value ([3]; 450 μM, 5 hrs) was 68.4 and the “Early Apoptosis [A-V*/PI*]” value ([3]; 450 μM, 24 hrs) was 26. The “Necrosis/ Late Apoptosis [A-V*/PI*]” value ([3]; 450 μM, 24 hrs) was 23.9, the “Normal [A-V*/PI]” value ([3]; 450 μM, 24 hrs) was 50.1 and the “Early Apoptosis [A-V*/PI*]” value ([3]; 450 μM, 48 hrs) was 44.9. For the same compound, the “Necrosis/ Late Apoptosis [A-V*/PI*]” value ([3]; 450 μM, 48 hrs) was 26, the “Normal [A-V*/PI]” value ([3]; 450 μM, 48 hrs) was 29.1 and the “apoptosis/necrosis induction in human adipocytes (in words)” value [3] was “clear apoptosis after 5 hrs with virtually no necrosis”.
`CNCC[C@H](Oc1cccc2ccccc12)c1cccs1` [Duloxetine] gave an IC50 ([1]; Homo sapiens, Adipocyte, 48 h, read-out: IC50 48 hrs Resazurin) of 42.9 µM and an IC50 ([2]; 48 h) of ~31.9 µM.
In the case of `CN(C)CCC[C@@]1(c2ccc(F)cc2)OCc2cc(C#N)ccc21` [Test substance 3, Escitalopram oxalate], the IC50 [1, 4] is reported as 491 µM and the “Rel. max. LDH release [%] 48 hrs” value [2] is reported as 88.0%.
Compound `OCCN1CCN(CCCN2c3ccccc3Sc3ccc(Cl)cc32)CC1` [Perphenazine] has an IC50 [1, 5] of 25 µM and an IC50 ([2]; Example 2, 48 hrs) of ~20.3 µM.
In the case of `COc1ccc([C@@H]2Sc3ccccc3N(CCN(C)C)C(=O)[C@@H]2OC(C)=O)cc1.Cl` [Test substance 6, Diltiazem HCl], the IC50 ([1]; read-out: IC50 (metabolic activity after 48 hrs), Example 1, 48 hrs exposure, resazurin) is reported as 800 µM and the “Rel. max. LDH release [%] 48 hrs” value [2] is reported as 94.5%.
With `O=C1C[C@@H](c2ccc(O)cc2)Oc2cc(O)cc(O)c21` [Naringenin] the “Early Apoptosis [A-V*/PI*]” value ([3]; 500 μM, 5 hrs) was 16, the “Necrosis/ Late Apoptosis [A-V*/PI*]” value ([3]; 500 μM, 5 hrs) was 0.8 and the “Normal [A-V*/PI]” value ([3]; 500 μM, 5 hrs) was 83.2. For the same compound, the “Early Apoptosis [A-V*/PI*]” value ([3]; 500 μM, 24 hrs) was 14.1, the “Necrosis/ Late Apoptosis [A-V*/PI*]” value ([3]; 500 μM, 24 hrs) was 4.1 and the “Normal [A-V*/PI]” value ([3]; 500 μM, 24 hrs) was 81.8. For the same compound, the “Early Apoptosis [A-V*/PI*]” value ([3]; 500 μM, 48 hrs) was 12.1, the “Necrosis/ Late Apoptosis [A-V*/PI*]” value ([3]; 500 μM, 48 hrs) was 5.7 and the “Normal [A-V*/PI]” value ([3]; 500 μM, 48 hrs) was 81.2. For the same compound, the “apoptosis/necrosis induction in human adipocytes (in words)” value [3] was “small but clear increase in apoptotic/necrotic adipocytes over time”.
For `CN1CCN(CCCN2c3ccccc3Sc3ccc(C(F)(F)F)cc32)CC1` [Trifluoperazine], the IC50 [1, 5] was 17.4 µM and the IC50 ([2]; Example 2, 48 hrs) was ~14.3 µM.
